From PubChem BioAssay AID1259407 (Chemical Carcinogenesis Research Information System (CCRIS), 2018)
Calls of active or inactive are those of the source. How the calls were made is not given here.

System: CCRIS mutagenicity, Ames/micronucleus/aberration tests
Test: CCRIS mutagenicity studies
[1] = Test System: AMES SALMONELLA TYPHIMURIUM, Strain/Indicator: TA98, Metabolic Activation: NONE, Method: PREINCUBATION
[2] = Test System: AMES SALMONELLA TYPHIMURIUM, Strain/Indicator: TA100, Metabolic Activation: NONE, Method: PREINCUBATION
[3] = Test System: AMES SALMONELLA TYPHIMURIUM, Strain/Indicator: TA1535, Metabolic Activation: NONE, Method: PREINCUBATION
[4] = Test System: AMES SALMONELLA TYPHIMURIUM, Strain/Indicator: TA1535, Metabolic Activation: RAT, LIVER, S-9, AROCLOR 1254 (10%), Method: PREINCUBATION
[5] = Test System: AMES SALMONELLA TYPHIMURIUM, Strain/Indicator: TA1537, Metabolic Activation: NONE, Method: PREINCUBATION
[6] = Test System: AMES SALMONELLA TYPHIMURIUM, Strain/Indicator: TA98, Metabolic Activation: NONE, Method: STANDARD PLATE
[7] = Test System: AMES SALMONELLA TYPHIMURIUM, Strain/Indicator: TA98, Metabolic Activation: RAT, LIVER, S-9, AROCLOR 1254, Method: STANDARD PLATE
[8] = Test System: AMES SALMONELLA TYPHIMURIUM, Strain/Indicator: TA100, Metabolic Activation: NONE, Method: STANDARD PLATE
[9] = Test System: AMES SALMONELLA TYPHIMURIUM, Strain/Indicator: TA100, Metabolic Activation: RAT, LIVER, S-9, AROCLOR 1254, Method: STANDARD PLATE
[10] = Test System: AMES SALMONELLA TYPHIMURIUM, Strain/Indicator: TA1535, Metabolic Activation: NONE, Method: STANDARD PLATE
[11] = Test System: AMES SALMONELLA TYPHIMURIUM, Strain/Indicator: TA1535, Metabolic Activation: RAT, LIVER, S-9, AROCLOR 1254, Method: STANDARD PLATE
[12] = Test System: AMES SALMONELLA TYPHIMURIUM, Strain/Indicator: TA1537, Metabolic Activation: NONE, Method: STANDARD PLATE
[13] = Test System: AMES SALMONELLA TYPHIMURIUM, Strain/Indicator: TA1537, Metabolic Activation: RAT, LIVER, S-9, AROCLOR 1254, Method: STANDARD PLATE
[14] = Test System: AMES SALMONELLA TYPHIMURIUM, Strain/Indicator: TA1538, Metabolic Activation: NONE, Method: PREINCUBATION
[15] = Test System: E. COLI, Strain/Indicator: WP2 UVRA, Metabolic Activation: NONE, Method: PREINCUBATION

`Cc1cc(C)n(-c2nnc(NN)c3c2[nH]c2ccccc23)n1` was tested, and the mutagenic call [1] was “inactive; negative”, the mutagenic call (Test System: AMES SALMONELLA TYPHIMURIUM, Strain/Indicator: TA98, Metabolic Activation: RAT, LIVER, S-9, AROCLOR 1254 (4 OR 10%), Method: PREINCUBATION) was “inactive; negative” and the mutagenic call [2] was “inactive; negative”. For the same compound, the mutagenic call (Test System: AMES SALMONELLA TYPHIMURIUM, Strain/Indicator: TA100, Metabolic Activation: RAT, LIVER, S-9, AROCLOR 1254 (4 OR 10%), Method: PREINCUBATION) was “inactive; negative”, the mutagenic call [3] was “inactive; negative” and the mutagenic call [4] was “inactive; negative”. The mutagenic call [5] was “inactive; negative” and the mutagenic call (Test System: AMES SALMONELLA TYPHIMURIUM, Strain/Indicator: TA1537, Metabolic Activation: RAT, LIVER, S-9, AROCLOR 1254 (4 OR 10%), Method: PREINCUBATION) was “inactive; negative”.

In the case of `C[C@]12CC[C@H](OC(=O)/C=C/c3cccc(N(CCCl)CCCl)c3)C[C@@H]1CC[C@@H]1[C@@H]2CC[C@]2(C)NC(=O)CC[C@@H]12`, the mutagenic call [6] is reported as “inactive; negative”, the mutagenic call [7] is reported as “inactive; negative” and the mutagenic call [8] is reported as “inactive; negative”. For the same compound, the mutagenic call [9] was “inactive; negative”, the mutagenic call [10] was “inactive; negative” and the mutagenic call [11] was “inactive; negative”. For the same compound, the mutagenic call [12] was “inactive; negative” and the mutagenic call [13] was “inactive; negative”.

With `CC(O)C(C)O` (stereo not drawn) the mutagenic call [1] was “inactive; negative”, the mutagenic call [2] was “inactive; negative” and the mutagenic call [3] was “inactive; negative”. The mutagenic call [5] was “inactive; negative”, the mutagenic call [14] was “inactive; negative” and the mutagenic call [15] was “inactive; negative”.

For `CC1(c2ccc(Br)cc2)CO1` (stereo not drawn), the mutagenic call [2] was “inactive; negative”.

For `O=C(O)c1cc2ccccc2cc1O`, the mutagenic call (End Point: In vitro chromosomal aberrations, Test System: Chinese hamster lung (CHL/IU) cells, Metabolic Activation: Rat, Liver, S9, Phenobarbital and 5,6-benzoflavone) was “active; positive (structural changes and ploidy). precipitation of test chemical at 1.0”, the mutagenic call [1] was “inactive; negative” and the mutagenic call (Test System: AMES SALMONELLA TYPHIMURIUM, Strain/Indicator: TA98, Metabolic Activation: RAT LIVER S-9, PHENOBARBITAL AND BETA-NAPHTHOFLAVONE, Method: PREINCUBATION) was “inactive; negative”. The mutagenic call (Test System: AMES SALMONELLA TYPHIMURIUM, Strain/Indicator: TA98, Metabolic Activation: RAT, LIVER, S-9, KC 500, Method: PREINCUBATION) was “inactive; negative”, the mutagenic call [2] was “inactive; negative” and the mutagenic call (Test System: AMES SALMONELLA TYPHIMURIUM, Strain/Indicator: TA100, Metabolic Activation: RAT LIVER S-9, PHENOBARBITAL AND BETA-NAPHTHOFLAVONE, Method: PREINCUBATION) was “inactive; negative”. The mutagenic call (Test System: AMES SALMONELLA TYPHIMURIUM, Strain/Indicator: TA100, Metabolic Activation: RAT, LIVER, S-9, KC 500, Method: PREINCUBATION) was “inactive; negative”, the mutagenic call [3] was “inactive; negative” and the mutagenic call (Test System: AMES SALMONELLA TYPHIMURIUM, Strain/Indicator: TA1535, Metabolic Activation: RAT LIVER S-9, PHENOBARBITAL AND BETA-NAPHTHOFLAVONE, Method: PREINCUBATION) was “inactive; negative”. For the same compound, the mutagenic call (Test System: AMES SALMONELLA TYPHIMURIUM, Strain/Indicator: TA1535, Metabolic Activation: RAT, LIVER, S-9, KC 500, Method: PREINCUBATION) was “inactive; negative”, the mutagenic call (Test System: AMES SALMONELLA TYPHIMURIUM, Strain/Indicator: TA1537, Metabolic Activation: RAT LIVER S-9, PHENOBARBITAL AND BETA-NAPHTHOFLAVONE, Method: PREINCUBATION) was “inactive; negative” and the mutagenic call (Test System: AMES SALMONELLA TYPHIMURIUM, Strain/Indicator: TA1537, Metabolic Activation: RAT, LIVER, S-9, KC 500, Method: PREINCUBATION) was “inactive; negative”. For the same compound, the mutagenic call [14] was “inactive; negative”, the mutagenic call (Test System: AMES SALMONELLA TYPHIMURIUM, Strain/Indicator: TA1538, Metabolic Activation: RAT LIVER S-9, PHENOBARBITAL AND BETA-NAPHTHOFLAVONE, Method: PREINCUBATION) was “inactive; negative” and the mutagenic call (Test System: AMES SALMONELLA TYPHIMURIUM, Strain/Indicator: TA1538, Metabolic Activation: RAT, LIVER, S-9, KC 500, Method: PREINCUBATION) was “inactive; negative”. For the same compound, the mutagenic call (Test System: E. COLI, Strain/Indicator: WP2UVRA/PKM101, Metabolic Activation: NONE, Method: PREINCUBATION) was “inactive; negative”, the mutagenic call (Test System: E. COLI, Strain/Indicator: WP2UVRA/PKM101, Metabolic Activation: RAT LIVER S-9, PHENOBARBITAL AND BETA-NAPHTHOFLAVONE, Method: PREINCUBATION) was “inactive; negative” and the mutagenic call [15] was “inactive; negative”. For the same compound, the mutagenic call (Test System: E. COLI, Strain/Indicator: WP2UVRA, Metabolic Activation: NONE, Method: PREINCUBATION) was “inactive; negative”, the mutagenic call (Test System: E. COLI, Strain/Indicator: WP2UVRA, Metabolic Activation: RAT LIVER S-9, PHENOBARBITAL AND BETA-NAPHTHOFLAVONE, Method: PREINCUBATION) was “inactive; negative” and the mutagenic call (Test System: E. COLI, Strain/Indicator: WP2 UVRA, Metabolic Activation: RAT, LIVER, S-9, KC 500, Method: PREINCUBATION) was “inactive; negative”.

`CN(C)CCCN` was tested, and the mutagenic call (Test System: AMES SALMONELLA TYPHIMURIUM, Strain/Indicator: TA98, Metabolic Activation: HAMSTER, LIVER, S-9, AROCLOR 1254 (10%), Method: PREINCUBATION) was “inactive; negative”, the mutagenic call [1] was “inactive; negative” and the mutagenic call (Test System: AMES SALMONELLA TYPHIMURIUM, Strain/Indicator: TA98, Metabolic Activation: RAT, LIVER, S-9, AROCLOR 1254 (10%), Method: PREINCUBATION) was “inactive; negative”. The mutagenic call (Test System: AMES SALMONELLA TYPHIMURIUM, Strain/Indicator: TA98, Metabolic Activation: RAT, LIVER, S-9, PCB, Method: PREINCUBATION) was “inactive; negative”, the mutagenic call (Test System: AMES SALMONELLA TYPHIMURIUM, Strain/Indicator: TA100, Metabolic Activation: HAMSTER, LIVER, S-9, AROCLOR 1254 (10%), Method: PREINCUBATION) was “inactive; negative” and the mutagenic call [2] was “inactive; negative”. The mutagenic call (Test System: AMES SALMONELLA TYPHIMURIUM, Strain/Indicator: TA100, Metabolic Activation: RAT, LIVER, S-9, AROCLOR 1254 (10%), Method: PREINCUBATION) was “inactive; negative”, the mutagenic call (Test System: AMES SALMONELLA TYPHIMURIUM, Strain/Indicator: TA100, Metabolic Activation: RAT, LIVER, S-9, PCB, Method: PREINCUBATION) was “inactive; negative” and the mutagenic call (Test System: AMES SALMONELLA TYPHIMURIUM, Strain/Indicator: TA1535, Metabolic Activation: HAMSTER, LIVER, S-9, AROCLOR 1254 (10%), Method: PREINCUBATION) was “inactive; negative”. The mutagenic call [3] was “inactive; negative”, the mutagenic call [4] was “inactive; negative” and the mutagenic call (Test System: AMES SALMONELLA TYPHIMURIUM, Strain/Indicator: TA1537, Metabolic Activation: HAMSTER, LIVER, S-9, AROCLOR 1254 (10%), Method: PREINCUBATION) was “inactive; negative”. The mutagenic call [5] was “inactive; negative” and the mutagenic call (Test System: AMES SALMONELLA TYPHIMURIUM, Strain/Indicator: TA1537, Metabolic Activation: RAT, LIVER, S-9, AROCLOR 1254 (10%), Method: PREINCUBATION) was “inactive; negative”.

With `Nc1c(S(=O)(=O)O)cc(NC2CCCCC2)c2c1C(=O)c1ccccc1C2=O` the mutagenic call [6] was “inactive; negative”, the mutagenic call [7] was “inactive; negative” and the mutagenic call [8] was “inactive; negative”. The mutagenic call [9] was “inactive; negative”, the mutagenic call [10] was “inactive; negative” and the mutagenic call [11] was “inactive; negative”. For the same compound, the mutagenic call [12] was “inactive; negative”, the mutagenic call [13] was “inactive; negative” and the mutagenic call (Test System: AMES SALMONELLA TYPHIMURIUM, Strain/Indicator: TA1538, Metabolic Activation: NONE, Method: STANDARD PLATE) was “inactive; negative”. For the same compound, the mutagenic call (Test System: AMES SALMONELLA TYPHIMURIUM, Strain/Indicator: TA1538, Metabolic Activation: RAT, LIVER, S-9, AROCLOR 1254, Method: STANDARD PLATE) was “inactive; negative”.
